Values quoted from earlier work in patent US10427251B2, “Fine silver particle dispersion, fine silver particles, and method for producing same” (BANDO CHEMICAL INDUSTRIES, LTD., priority 2014, dated 2019).

Conditions: n-octanol/water

Compound | partition coefficient log P
CCOCCCN [3-ethoxypropylamine] | −0.1
COCCN [2-methoxyethylamine] | −0.9
CCN [ethylamine] | −0.3
NCCCN [1,3-propanediamine] | −1.4
COCCCN [3-methoxypropylamine] | −0.5
CCCCCCN [hexylamine] | 2.1

The next lines start with the values.

partition coefficient log P | Compound
1.0 | CCCCN [butylamine]
0.5 | CCCN [propylamine]
−0.3 | NCCCCCO [pentanolamine]
